Laboratory results taken from patent EP2307018B1, “OXYMATRINE COMPOSITIONS AND USE THEREOF FOR TREATING AND PREVENTING CHRONIC INFECTIOUS DISEASES” (Chia, John K.S., priority 2008, dated 2010).

How the values were obtained:
enterovirus = experiment: case report Example 5, treatment of chronic fatigue; assay type: in vivo, human; conditions: before oxymatrine
Experimental: A person developed debilitating fatigue, sore throat, oral ulcers, vertigo, headaches and cognitive dysfunction two months after having a flu-like illness. […] Approximately four years later, the patient started taking oxymatrine. After an initial increase of gastrointestinal symptoms for the first two weeks, the patient tolerated 500 mg per day of oxymatrine.
The symptoms continued for two weeks and resolved after stopping oxymatrine. […] They continued to improve for 12 months after taking the medication.

coxsackievirus B [1] = conditions: in vitro; mechanism not defined; cited from earlier work
Coxsackievirus B [2] = conditions: intravenous matrine; 0% in the placebo-treated group; cited from earlier work
echoviruses = conditions: in vitro; mechanism not defined; cited from earlier work

CC(C)[C@H](N)C(=O)OCCOCn1cnc2c(=O)[nH]c(N)nc21 [valacyclovir, reference compound]
clinical response (enterovirus): did not respond

O=C1CCC[C@@H]2[C@H]3CCCN4CCC[C@@H](CN12)[C@@H]34 [matrine]
growth inhibition of coxsackievirus B in cell cultures (coxsackievirus B [1]): growth inhibition | patients with improvement of cardiac function, increase in lymphocyte number and function, and loss of viral markers (Coxsackievirus B [2]): more than 90% | growth inhibition of echoviruses in cell cultures (echoviruses): growth inhibition
